# Measurements as given in patent US11242508B2, “Methods relating to pluripotent cells” (priority 2014, dated 2022).
# Read-outs that look alike come from different tables or passages of the source.
# Key:
# Muscle somatic cells = test: Percent of cells demonstrating pluripotent phenotype after stress treatment; type: cell-based, mice; conditions: 1 week-old, after 1 week of stress treatment
# Text: (§1) Stress alteration of mature somatic cells procured from various adult tissues. To examine whether ACCs could be generated not only mature lymphocytes but also other types of somatic cells, brain, skin, muscle, fat, bone marrow, lung and liver were harvested from Oct4-GFP (GOF) mice^8. Cells were isolated from the tissue samples, dissociated into single cells, and treated with different physical and or chemical stress conditions. The efficiency of the process to alter the cells differed as a function of both the source of cells and the stress condition(s) to which the cells were exposed (FIG. 7A). The ability of stress to alter mature cells to express Oct4, differed depending on the derivation of cells, but stress was able to alter cells to express Oct4 to some degree in mature cells derived from all three germ layers (FIG. 7A). ACC colonies derived from any mature tissue expressed pluripotent markers, E-cadherin, Nanog, PCAM-1 and AP (data not shown), and ES specific marker genes (FIG. 7B). Significant physical and chemical stresses altered mature somatic cells to revert to a stem cell state, despite of the source of tissues and derivation of the germ layers.
# (§2) Exposure to external stimuli-stress treatment. To give a mechanical stress to mature cells, pasture pipette were heated and then stretched to create lumens approximately 50 microns in diameters, and then broken. Mature somatic cells were then triturated through these pipettes for 20 min, and cultured for 7 days. To provide a hypoxic stimulus to mature cells, cells were cultured in a 5% oxygen incubator for 3 weeks. An under nutrition stimulus was provided to mature cells, by culturing the cells in a basic culture medium for 3 weeks. To expose the mature cells to a physiological stress, they were treated with low pH (pH5.5) solution, and cultured for 7 days. Also, cells were given more serious damage. To create pores in mature cell membranes, cells were treated with SLO (Streptolysin O).
# (§3) SLO-treated cells were incubated in HBSS containing 10 μg/mL SLO at 37° C. for 50 min and then cultured in culture medium without SLO for 7 days. Cells exposed to under-nutrition stress were cultured in basal medium for 2 to 3 weeks. […] Cells exposed to “Ca” stress were cultured in culture medium containing 2 mM CaCl2) for 2 weeks.
# (§4) Fluorescence-Activated Cell Sorting and Flow Cytometry. Cells were prepared according to standard protocols and suspended in 0.1% BSA/PBS on ice prior to FACS. PI (BD Biosciences) was used to exclude dead cells. Cells were sorted on a BD FACSAria SORP and analyzed on a BD LSRII with BD FACSDiva Software (BD Biosciences).
# Fat somatic cells = test: as above; type: cell-based, mice; conditions: 1 week-old, after 1 week of stress treatment
# Text: as §1, §2, §3, §4
# Lung somatic cells = test: as above; type: cell-based, mice; conditions: 1 week-old, after 1 week of stress treatment
# Text: as §1, §2, §3, §4
# Fibroblast = test: as above; type: cell-based, mice; conditions: 1 week-old, after 1 week of stress treatment
# Text: as §1, §2, §3, §4
# [1] = test system: Bone Marrow somatic cells; test: as above; type: cell-based, mice; conditions: 1 week-old, after 1 week of stress treatment
# Text: as §1, §2, §3, §4
# mature somatic cells = test: STAP cell generation with low pH solution containing ATP; type: cell-based; conditions: low pH solution containing ATP versus pH alone
# Description: When this solution is used in combination with mechanical trituration of mature cells, the results were even more profound. Consequently, described herein is a protocol which incorporates these findings to increase the efficacy of generating STAP cells.
# A1. Make a low pH HBSS solution containing ACT as follows and then set aside for use in step A4. […] The pH of this solution is about 3.0.
# Place 5 mL of HBSS (with phenol red) [Life Technologies, 14170-161] into a 15 mL tube. Place a clean pH sensor into the HBSS. Titrate in the ACT stock solution, drop by drop, into the HBSS until the desired pH of, e.g., 5.0 is obtained. Mix the solution regularly to ensure that the measurement is accurate.
# A4. […] In some embodiments, a volume of 2-3 ml of the cell suspension in a 50 ml tube can be used.
# Brain somatic cells = type: cell-based, mice; conditions: 1 week-old, after 1 week of stress treatment
# Description: Exposure to external stimuli-stress treatment. To give a mechanical stress to mature cells, pasture pipette were heated and then stretched to create lumens approximately 50 microns in diameters, and then broken. Mature somatic cells were then triturated through these pipettes for 20 min, and cultured for 7 days. To provide a hypoxic stimulus to mature cells, cells were cultured in a 5% oxygen incubator for 3 weeks. An under nutrition stimulus was provided to mature cells, by culturing the cells in a basic culture medium for 3 weeks. To expose the mature cells to a physiological stress, they were treated with low pH (pH5.5) solution, and cultured for 7 days. Also, cells were given more serious damage. To create pores in mature cell membranes, cells were treated with SLO (Streptolysin O). […]
# Cells were prepared according to standard protocols and suspended in 0.1% BSA/PBS on ice prior to FACS. […] Cells were sorted on a BD FACSAria SORP and analyzed on a BD LSRII with BD FACSDiva Software (BD Biosciences).
# NK1-R [2] = type: in vivo, rat; conditions: for IC50: read-out: IC50, tactile hyperalgesia
# Description: (§5) The highly specific cytotoxin SSP-SAP (20 uL, 1 uM) was injected into the intrathecal (i.t.) space of the male rat spinal cord in order to ablate a large majority of the neurokinin-1 receptor (NK1R)-expressing neurons. Two to 3 weeks later the normally robust hyperalgesic responses to injection of capsaicin (10 uL, 0.1%) in the plantar hindpaw, consisting of mechanical hyperalgesia to stimulation by von Frey filaments and thermal hyperalgesia appearing as a shortening of the latency of withdrawal to a radiant heat source, were almost absent. […] It thus appears that STAP stem cells can restore normal function after specific spinal neuronal loss and present a model for a therapeutic approach to spinal cord injury.
# (§6) Adult male S-D rats were first handled for 4-5 days to familiarize them with the test arena, to minimize stress-induced analgesia, and to obtain Naïve and initial Baseline behavioral data. Tactile responsiveness was determined by probing the plantar surface of one hindpaw with a 15 g von Frey filament (VFH), 10 times every 3 secs. Baseline sensitivity, with no treatments and no capsaicin equaled ˜1-2 paw withdrawals per 10 probes. Thermal sensitivity was indicated by the latency for paw withdrawal from a radiant heat source (Hargreaves method: cutoff time set at 18 sec.). Baseline latency ˜16 sec. Before any intrathecal injections, the Naïve rats' responses to capsaicin injection into the hindpaw were determined to be: Tactile: 6 withdrawals/10 VFH probes, and Thermal: 6 sec latency.
# NK1-R [3] = target: T1, NK1-R (Rattus norvegicus, UniProt P14600); type: in vivo; conditions: naïve rats (and rats that received Blank-SAP followed by stem cells, not shown); 30 uL i.t. injection; read-out: IC50, thermal hyperalgesia
# T1 construct: from tissue; host or cells: spinal cord of living adult male Sprague-Dawley rats (in vivo, intrathecal dosing)
# Description: as §5, §6
# NK1-R [4] = type: in vivo, rat
# Description: as §5, §6
# NK-1R = type: in vivo, rat
# Description: as §5
# as §6, with “Thermal sensitivity was indicated by the latency for paw withdrawal from a radiant heat source (Hargreaves method: cutoff time set at 18 sec.). Baseline latency ˜16 sec.” left out, “latency. […]” for “latency.”
# T1 sequence (P14600 whole entry): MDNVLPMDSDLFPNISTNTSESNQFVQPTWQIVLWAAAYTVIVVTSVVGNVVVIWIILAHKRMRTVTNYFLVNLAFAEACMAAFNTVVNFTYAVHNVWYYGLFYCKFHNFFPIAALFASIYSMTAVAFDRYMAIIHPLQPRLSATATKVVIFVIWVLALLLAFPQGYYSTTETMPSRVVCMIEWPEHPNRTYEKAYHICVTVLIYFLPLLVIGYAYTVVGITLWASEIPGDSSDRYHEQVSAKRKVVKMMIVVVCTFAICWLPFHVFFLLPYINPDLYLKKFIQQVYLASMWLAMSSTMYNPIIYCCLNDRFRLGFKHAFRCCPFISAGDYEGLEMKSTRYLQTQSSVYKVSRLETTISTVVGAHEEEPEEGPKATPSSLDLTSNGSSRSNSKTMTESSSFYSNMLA
Compound,Percent of cells demonstrating pluripotent phenotype (Muscle somatic cells) [%],Percent of cells demonstrating pluripotent phenotype (Fat somatic cells) [%],Percent of cells demonstrating pluripotent phenotype (Lung somatic cells) [%],Percent of cells demonstrating pluripotent phenotype (Fibroblast) [%],Percent of cells demonstrating pluripotent phenotype [1] [%],Percent of cells demonstrating pluripotent phenotype (Brain somatic cells) [%],also measured
"Nc1ncnc2c1ncn2[C@@H]1O[C@H](COP(=O)([O-])OP(=O)([O-])OP(=O)(O)O)[C@@H](O)[C@H]1O.O.[Na+].[Na+] [ATP, Adenosine 5′ Triphosphate Disodium Salt Hydrate]",68.4,79.6,9.8,25.10,12.3,–,Efficacy of conversion to STAP cells (mature somatic cells): dramatically increased the efficacy of this conversion
"[Ca+2].[Cl-].[Cl-] [Ca, CaCl2]",1.5,2.7,1.3,3.5,1.2,0.8,–
"FC(F)(F)c1cc(CO[C@H]2CCCN[C@H]2c2ccccc2)cc(C(F)(F)F)c1 [L-733,060]",–,–,–,–,–,–,"IC50 (NK1-R [2]; naïve rats (and rats that received Blank-SAP followed by stem cells, not shown), 30 uL i.t. injection): ~300 µM; IC50 (NK1-R [2]; stem cell-restored rats, i.t. injection): ~30 µM; IC50 (NK1-R [3]): ~300 µM; IC50 (NK1-R [4]; stem cell-restored rats, i.t. injection, read-out: IC50, thermal hyperalgesia): ~5 µM; Enhancement of potency for inhibition of capsaicin hyperalgesia (NK-1R; STAP stem cell restored rats over Naïve rats or rats that received Blank-SAP): 10-60 times; Inhibition of the restored hyperalgesic response (NK-1R; STAP stem cell-restored rats, i.t. injection at 300 uM): fully inhibited"
COc1cc(CNC(=O)CCCC/C=C/C(C)C)ccc1O [capsaicin],–,–,–,–,–,–,"Tactile response to capsaicin injection into the hindpaw (NK1-R [2]; Naïve rats, before any intrathecal injections, 15 g von Frey filament): 6 withdrawals/10 VFH probes; Thermal response to capsaicin injection into the hindpaw, latency (NK1-R [4]; Naïve rats, before any intrathecal injections, radiant heat, cutoff 18 sec): 6 s"
streptolysin O [SLO],20.5,32.8,18.4,15.2,13.2,10.3,–
